Key:
Rhyncosporium secalis = test: Barley Scald fungicidal activity (RHYNSE); assay type: in vivo; conditions: Hordeum vulgare, 24 h, 1 Day Protectant, read-out: Disease Control RHYNSE 1DP
Procedure: Technical grades of materials were dissolved in acetone, which were then mixed with nine volumes of water containing 110 ppm Triton X-100. The fungicide solutions were applied onto wheat seedlings using an automated booth sprayer to run-off. All sprayed plants were allowed to air dry prior to further handling. All fungicides were evaluated using the aforementioned method for their activity vs. all target diseases. Wheat leaf blotch and brown rust activity were also evaluated using track spray applications, in which case the fungicides were formulated as EC formulations, containing 0.1% Trycol 5941 in the spray solutions. Wheat plants (variety Yuma) were grown from seed in a greenhouse in 50% mineral soil/50% soil-less Metro mix until the first leaf was fully emerged, with 7-10 seedlings per pot. These plants were inoculated with an aqueous spore suspension of Septoria tritici either prior to or after fungicide treatments. After inoculation the plants were kept in 100% relative humidity (one day in a dark dew chamber followed by two to three days in a lighted dew chamber at 20° C.) to permit spores to germinate and infect the leaf. The plants were then transferred to a greenhouse set at 20° C. for disease to develop. When disease symptoms were fully expressed on the 1st leaves of untreated plants, infection levels were assessed on a scale of 0 to 100 percent disease severity. Percent disease control was calculated using the ratio of disease severity on treated plants relative to untreated plants. Evaluation of Fungicidal Activity: Barley Scald (Rhyncosporium secalis; Bayer Code […]) Barley seedlings (variety Harrington) were propagated in soil-less Metro mix, with each pot having 8 to 12 plants, and used in the test when first leaf was fully emerged. Test plants were inoculated by an aqueous spore suspension of Rhyncosporium secalis 24 hr after fungicide treatments. After inoculation the plants were kept in a dew room at 20° C. with 100% relative humidity for 48 hr. The plants were then transferred to a greenhouse set at 20° C. for disease to develop. Fungicide formulation, application and disease assessment on the sprayed leaves followed the procedures as described in the Example A.

[1] = system: Blumeria graminis f. sp. tritici; test: Wheat Powdery Mildew fungicidal activity (ERYSGT); assay type: in vivo; conditions: 100 ppm, 1 Day Protectant
Procedure: Technical grades of materials were dissolved in acetone, which were then mixed with nine volumes of water containing 110 ppm Triton X-100. The fungicide solutions were applied onto wheat seedlings using an automated booth sprayer to run-off. All sprayed plants were allowed to air dry prior to further handling. All fungicides were evaluated using the aforementioned method for their activity vs. all target diseases. Wheat leaf blotch and brown rust activity were also evaluated using track spray applications, in which case the fungicides were formulated as EC formulations, containing 0.1% Trycol 5941 in the spray solutions. Wheat plants (variety Yuma) were grown from seed in a greenhouse in 50% mineral soil/50% soil-less Metro mix until the first leaf was fully emerged, with 7-10 seedlings per pot. These plants were inoculated with an aqueous spore suspension of Septoria tritici either prior to or after fungicide treatments. After inoculation the plants were kept in 100% relative humidity (one day in a dark dew chamber followed by two to three days in a lighted dew chamber at 20° C.) to permit spores to germinate and infect the leaf. The plants were then transferred to a greenhouse set at 20° C. for disease to develop. When disease symptoms were fully expressed on the 1st leaves of untreated plants, infection levels were assessed on a scale of 0 to 100 percent disease severity. Percent disease control was calculated using the ratio of disease severity on treated plants relative to untreated plants. Evaluation of Fungicidal Activity: Wheat Powdery Mildew (Blumeria graminis f. sp. tritici; Synonym: Erysiphe graminis f. sp. tritici; Bayer Code […]) Wheat plants (variety Yuma) were grown from seed in a greenhouse in 50% mineral soil/50% soil-less Metro mix until the first leaf was fully emerged, with 7-10 seedlings per pot. These plants were inoculated by dusting with infected stock plants 24 hr after fungicide treatments. After inoculation the plants were kept in a greenhouse set at 20° C. for disease to develop. […]

Leptosphaeria nodorum = test: Wheat Glume Blotch fungicidal activity (LEPTNO); assay type: in vivo; conditions: 100 ppm, 1 Day Protectant
Procedure: Technical grades of materials were dissolved in acetone, which were then mixed with nine volumes of water containing 110 ppm Triton X-100. The fungicide solutions were applied onto wheat seedlings using an automated booth sprayer to run-off. All sprayed plants were allowed to air dry prior to further handling. All fungicides were evaluated using the aforementioned method for their activity vs. all target diseases. Wheat leaf blotch and brown rust activity were also evaluated using track spray applications, in which case the fungicides were formulated as EC formulations, containing 0.1% Trycol 5941 in the spray solutions. Wheat plants (variety Yuma) were grown from seed in a greenhouse in 50% mineral soil/50% soil-less Metro mix until the first leaf was fully emerged, with 7-10 seedlings per pot. These plants were inoculated with an aqueous spore suspension of Septoria tritici either prior to or after fungicide treatments. After inoculation the plants were kept in 100% relative humidity (one day in a dark dew chamber followed by two to three days in a lighted dew chamber at 20° C.) to permit spores to germinate and infect the leaf. The plants were then transferred to a greenhouse set at 20° C. for disease to develop. When disease symptoms were fully expressed on the 1st leaves of untreated plants, infection levels were assessed on a scale of 0 to 100 percent disease severity. Percent disease control was calculated using the ratio of disease severity on treated plants relative to untreated plants. Evaluation of Fungicidal Activity: Wheat Glume Blotch (Leptosphaeria nodorum; Bayer code […]) Wheat plants (variety Yuma) were grown from seed in a greenhouse in 50% mineral soil/50% soil-less Metro mix until the first leaf was fully emerged, with 7-10 seedlings per pot. These plants were inoculated with an aqueous spore suspension of Leptosphaeria nodorum 24 hr after fungicide treatments. After inoculation the plants were kept in 100% relative humidity (one day in a dark dew chamber followed by two days in a lighted dew chamber at 20° C.) to permit spores to germinate and infect the leaf. The plants were then transferred to a greenhouse set at 20° C. for disease to develop. Fungicide formulation, application and disease assessment followed the procedures as described in the Example A.

Phakopsora pachyrhizi = test: Asian Soybean Rust fungicidal activity (PHAKPA); assay type: in vivo; conditions: 25 ppm; for Disease Control PHAKPA 1DP: 1 Day Protectant; for Disease Control PHAKPA 3DC: 3 Day Curative
Procedure: Evaluation of Fungicidal Activity: Asian Soybean Rust (Phakopsora pachyrhizi; Bayer Code PHAKPA)
Technical grades of materials were dissolved in acetone, which were then mixed with nine volumes of water containing 0.011% Tween 20. The fungicide solutions were applied onto soybean seedlings using an automated booth sprayer to run-off. All sprayed plants were allowed to air dry prior to further handling.
Soybean plants (variety Williams 82) were grown in soil-less Metro mix, with one plant per pot. Two weeks old seedlings were used for testing. Plants were inoculated either 3 days prior to or 1 day after fungicide treatments. Plants were incubated for 24 h in a dark dew room at 22° C. and 100% RH then transferred to a growth room at 23° C. for disease to develop. Disease severity was assessed on the sprayed leaves.

Structure (SMILES) | pest or weed control at 100 ppm (Rhyncosporium secalis) [%] | melting point [°C] | Disease Control ERYSGT 1DP [1] | Disease Control LEPTNO 1DP (Leptosphaeria nodorum) | Disease Control PHAKPA 1DP (Phakopsora pachyrhizi) | Disease Control PHAKPA 3DC (Phakopsora pachyrhizi)
COc1ccnc(C(=O)N[C@H]2COC[C@H](Cc3ccc(Cl)cc3Cl)[C@@H](OC(=O)C(C)C)[C@H](C)OC2=O)c1OC(C)=O [Compound F73] | 80 to 100 | 93 to 97 |  |  |  | 
COc1ccnc(C(=O)N[C@H]2COC[C@H](Cc3ccc(C)cc3)[C@@H](OCC(C)C)[C@H](C)OC2=O)c1OC(C)=O [Compound F80] |  |  | A (80-100) | A (80-100) |  | 
COc1ccnc(C(=O)N[C@H]2COC[C@H](CCc3ccccc3)[C@@H](OCC(C)C)[C@H](C)OC2=O)c1OCOC(C)=O [Compound F82] | 80 to 100 |  |  |  |  | 
COc1ccnc(C(=O)N[C@H]2COC[C@H](Cc3cccc4ccccc34)[C@@H](OC(=O)C(C)C)[C@H](C)OC2=O)c1OCOC(C)=O [Compound F83, (3S,6S,7R,8S)-3-(3-(acetoxymethoxy)-4-methoxypicolin-amido)-6-methyl-8-(naphthalen-1-ylmethyl)-4-oxo-1,5-dioxonan-7-yl isobutyrate] | 80 to 100 | 58 to 64 |  | A (80-100) |  | 
COc1ccnc(C(=O)N[C@H]2COC[C@H](Cc3ccc(F)cc3)[C@@H](OCC(C)C)[C@H](C)OC2=O)c1OCOC(C)=O [Compound F96] |  |  | A (80-100) | A (80-100) |  | 
COc1ccnc(C(=O)N[C@H]2COC[C@H](CC(F)(F)F)[C@@H](OC3CCCC3)[C@H](C)OC2=O)c1OCOC(C)=O [Compound F105] | 80 to 100 |  |  |  |  | 
COc1ccnc(C(=O)N[C@H]2COC[C@H](CCC(C)C)[C@@H](OCCCC(F)(F)F)[C@H](C)OC2=O)c1OCOC(C)=O [Compound F107] | 80 to 100 |  |  |  | A (80-100) | B (More than 0-Less than 80)
COc1ccnc(C(=O)N[C@H]2COC[C@H](CCC(C)C)[C@@H](OC(=O)C3CC3)[C@H](C)OC2=O)c1OCOC(C)=O [Compound F108] | 80 to 100 |  |  |  | A (80-100) | A (80-100)
COc1ccnc(C(=O)N[C@H]2COC[C@H](Cc3ccc(Cl)cc3Cl)[C@@H](OC(=O)C(C)C)[C@H](C)OC2=O)c1OCOC(C)=O [Compound F110] | 80 to 100 | 62 to 66 |  |  |  | 
COc1ccnc(C(=O)N[C@H]2COC[C@H](CC3CCCC3)[C@@H](OC(=O)C(C)C)[C@H](C)OC2=O)c1OCOC(C)=O [Compound F114] | 80 to 100 | 41 to 45 |  |  | A (80-100) | B (More than 0-Less than 80)
COc1ccnc(C(=O)N[C@H]2COC[C@H](Cc3ccc(C)cc3)[C@@H](OCC(C)C)[C@H](C)OC2=O)c1OCOC(C)=O [Compound F117] |  |  | A (80-100) | A (80-100) |  | 
CCCCCO[C@@H]1[C@@H](Cc2ccc(Cl)cc2Cl)COC[C@H](NC(=O)c2nccc(OC)c2OCOC(=O)COCC)C(=O)O[C@H]1C [Compound F122] | 80 to 100 |  |  | A (80-100) | B (More than 0-Less than 80) | 
CCCCCO[C@@H]1[C@@H](Cc2ccc(Cl)cc2Cl)COC[C@H](NC(=O)c2nccc(OC)c2OC(=O)CCOC)C(=O)O[C@H]1C [Compound F123] | 80 to 100 | 96 to 99 |  | A (80-100) | B (More than 0-Less than 80) | 
